Article PMC5363571 (Oncotarget, 2016)
Where a name gives a salt, the structure may show the parent alone.

target: USP7 (Homo sapiens, UniProt Q93009); test: biochemical; design: Ub-AMC hydrolysis by recombinant USP7 (20 nM), 30 min pre-incubation, fluorescence read-out; details: read-out: % Inhibition at 50 μM
Sequence (Q93009 whole entry): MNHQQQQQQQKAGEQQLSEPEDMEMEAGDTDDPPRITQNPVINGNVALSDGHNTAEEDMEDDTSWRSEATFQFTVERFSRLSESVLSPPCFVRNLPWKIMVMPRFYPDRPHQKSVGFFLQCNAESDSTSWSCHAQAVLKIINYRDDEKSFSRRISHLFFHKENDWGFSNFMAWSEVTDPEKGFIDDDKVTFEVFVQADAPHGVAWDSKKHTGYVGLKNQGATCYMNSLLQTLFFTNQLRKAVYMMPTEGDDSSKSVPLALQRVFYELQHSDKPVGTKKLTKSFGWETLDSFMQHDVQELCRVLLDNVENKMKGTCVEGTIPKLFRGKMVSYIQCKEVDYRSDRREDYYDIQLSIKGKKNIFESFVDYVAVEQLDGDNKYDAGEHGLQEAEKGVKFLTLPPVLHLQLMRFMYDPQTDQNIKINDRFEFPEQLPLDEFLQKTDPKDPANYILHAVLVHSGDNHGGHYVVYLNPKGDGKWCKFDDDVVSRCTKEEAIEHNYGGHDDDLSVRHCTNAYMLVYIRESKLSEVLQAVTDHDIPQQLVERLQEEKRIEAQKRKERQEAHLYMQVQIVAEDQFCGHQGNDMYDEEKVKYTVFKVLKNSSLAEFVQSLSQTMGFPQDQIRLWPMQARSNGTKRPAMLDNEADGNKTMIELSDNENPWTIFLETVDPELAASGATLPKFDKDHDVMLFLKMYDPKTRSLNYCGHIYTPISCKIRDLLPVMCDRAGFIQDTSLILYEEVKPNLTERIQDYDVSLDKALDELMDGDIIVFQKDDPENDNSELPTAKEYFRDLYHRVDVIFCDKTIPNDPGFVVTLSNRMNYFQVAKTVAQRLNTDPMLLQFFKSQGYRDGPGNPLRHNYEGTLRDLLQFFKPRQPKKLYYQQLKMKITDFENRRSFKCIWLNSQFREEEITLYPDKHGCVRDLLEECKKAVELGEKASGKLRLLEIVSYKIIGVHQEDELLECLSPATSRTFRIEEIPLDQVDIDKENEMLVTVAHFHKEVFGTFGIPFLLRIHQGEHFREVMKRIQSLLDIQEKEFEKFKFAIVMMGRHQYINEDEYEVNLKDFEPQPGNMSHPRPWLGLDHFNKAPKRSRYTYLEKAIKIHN

Compound	inhibition at 50 µM
CC[C@@H](CO)NC(=O)[C@@H]1C=C2c3cccc4c3c(cn4C)C[C@H]2N(C)C1 [Methysergide]	< 5%
N[C@@H](Cc1cc(I)c(Oc2cc(I)c(O)c(I)c2)c(I)c1)C(=O)O [L-thyroxine [(3-[4-(4-hydroxy-3,5-diiodophenoxy)-3,5-diiodophenyl]-l-alanine]]	65.3%
O=C(O)c1cccnc1Nc1cccc(C(F)(F)F)c1 [Niflumic acid]	< 5%
CC(N/C(=N\C#N)Nc1ccncc1)C(C)(C)C (stereo not shown) [Pinacidil]	< 5%
C[N+]1(C)[C@@H]2C[C@@H](OC(=O)C(O)(c3cccs3)c3cccs3)C[C@H]1[C@@H]1O[C@@H]12 [Tiotropium Br]	< 5%
CC(CN1c2ccccc2Sc2ccccc21)N(C)C (stereo not shown) [Promethazine HCl]	8.9%
CCCc1nc(C(C)(C)O)c(C(=O)O)n1Cc1ccc(-c2ccccc2-c2nnn[nH]2)cc1 [Olmesartan]	< 5%
CCC1=C[C@@H]2CN(C1)Cc1c([nH]c3ccccc13)[C@@](C(=O)OC)(c1cc3c(cc1OC)N(C)[C@H]1[C@@](O)(C(=O)OC)[C@H](OC(C)=O)[C@]4(CC)C=CCN5CC[C@]31[C@@H]54)C2 [Vinorelbine]	45.3%
CC(NC(C)(C)C)C(=O)c1cccc(Cl)c1 (stereo not shown) [Amfebutamone]	< 5%
CS(=O)(=O)CCNCc1ccc(-c2ccc3ncnc(Nc4ccc(OCc5cccc(F)c5)c(Cl)c4)c3c2)o1 [Lapatinib]	< 5%
CC#C[C@]1(O)CC[C@H]2[C@@H]3CCC4=CC(=O)CCC4=C3[C@@H](c3ccc(N(C)C)cc3)C[C@@]21C [Mifepristone]	< 5%
CN(Cc1ccc(C(C)(C)C)cc1)Cc1cccc2ccccc12 [Butenafine]	24.9%
CN(C)CCCOc1nn(Cc2ccccc2)c2ccccc12 [Benzydamine]	< 5%
C[C@H]1COc2c(N3CCN(C)CC3)c(F)cc3c(=O)c(C(=O)O)cn1c23 [Levofloxacin HCl]	< 5%
C=C(C)[C@@H]1CC[C@]2(C)CC[C@]3(C)[C@H](CC[C@@H]4[C@@]5(C)CC[C@H](O)C(C)(C)[C@@H]5CC[C@]43C)[C@@H]12 [Lupeol]	< 5%
Clc1ccc(Nc2nnc(Cc3ccncc3)c3ccccc23)cc1 [Vatalanib]	< 5%
CCCCC(C)(O)C/C=C/[C@H]1[C@H](O)CC(=O)[C@@H]1CCCCCCC(=O)OC (mixture of isomers) [Misoprostol]	< 5%
COC(=O)C1=C(C)NC(C)=C(C(=O)OCCN(C)Cc2ccccc2)C1c1cccc([N+](=O)[O-])c1 (stereo not shown) [Nicardipine]	< 5%
CC=CC(=O)N(CC)c1ccccc1C [Crotamiton]	< 5%
CC1(C)CC[C@]2(C(=O)O)CC[C@]3(C)C(=CC[C@@H]4[C@@]5(C)CC[C@H](O)C(C)(C)[C@@H]5CC[C@]43C)[C@@H]2C1 [Oleanolic acid]	69.2%
CO[C@H]1/C=C/O[C@@]2(C)Oc3c(C)c(O)c4c(O)c(c(/C=N/N5CCN(C)CC5)c(O)c4c3C2=O)NC(=O)/C(C)=C\C=C\[C@H](C)[C@H](O)[C@@H](C)[C@@H](O)[C@@H](C)[C@H](OC(C)=O)[C@@H]1C [Rifampicin]	< 5%
CCN(CC)CCOc1ccc(C(=C(Cl)c2ccccc2)c2ccccc2)cc1 [Clomiphene citrate]	< 5%
CC(=O)S[C@@H]1CC2=CC(=O)CC[C@]2(C)[C@H]2CC[C@@]3(C)[C@@H](CC[C@@]34CCC(=O)O4)[C@H]12 [Spironolactone]	36.4%
O=P(O)(O)C(Cl)(Cl)P(=O)(O)O [Clodronate disodium]	< 5%

Compound	inhibition at 50 µM
CCCCCOC(=O)Nc1nc(=O)n([C@@H]2O[C@H](C)[C@@H](O)[C@H]2O)cc1F [Capecitabine]	< 5%
CC(C)(C)NCC(O)c1ccc(O)c(CO)c1 (stereo not shown) [Salbutamol sulfate]	< 5%
CCOC(=O)c1cnc2c(cnn2CC)c1NN=C(C)C [Etazolate]	< 5%
CNCCCC12CCC(c3ccccc31)c1ccccc12 [Maprotiline HCl]	11.3%
CC1CNc2c(cccc2S(=O)(=O)N[C@@H](CCCNC(=N)N)C(=O)N2CC[C@@H](C)C[C@@H]2C(=O)O)C1 (stereo partly shown) [Argatroban]	< 5%
O=C(CCNNC(=O)c1ccncc1)NCc1ccccc1 [Nialamide]	< 5%
Oc1ncnc2[nH]ncc12 [Allopurinol]	< 5%
COC(=O)c1ccc(O)c2nc3c(C=O)c(O)cc(O)c3nc12 [Lomofungin]	< 5%
C[C@H]1[C@H](C)CC[C@]2(C(=O)O)CC[C@]3(C)C(=CC[C@@H]4[C@@]5(C)CC[C@H](O)C(C)(C)[C@@H]5CC[C@]43C)[C@H]12 [Uosolic acid]	75.2%
C[N+](C)(C)[C@@H](Cc1c[nH]c(=S)[nH]1)C(=O)[O-] [Ergothioneine]	< 5%
CC(COc1ccccc1)N(CCCl)Cc1ccccc1 (stereo not shown) [Phenoxybenzamine HCl]	< 5%
O=C1C[C@@H]2OCC=C3CN4CC[C@]56c7ccccc7N1[C@H]5[C@H]2[C@H]3C[C@H]46 [Strychnine HCl]	< 5%
C#C[C@]1(O)CC[C@H]2[C@@H]3CCC4=CC(=O)CCC4=C3C=C[C@@]21CC [Gestrinone]	< 5%
CCCCN1C[C@H](O)[C@@H](O)[C@H](O)[C@H]1CO [Miglustat]	< 5%
C[C@H]1[C@H](C)CC[C@]2(C(=O)O)CC[C@]3(C)C(=CC[C@@H]4[C@@]5(C)C[C@@H](O)[C@H](O)C(C)(C)[C@@H]5CC[C@]43C)[C@H]12 [Corosolic acid]	43.2%
CC(=O)O[C@]1(C(C)=O)CC[C@H]2[C@@H]3C=C(C)C4=CC(=O)CC[C@]4(C)[C@H]3CC[C@@]21C [Megestrol acetate]	< 5%
CN[C@@H]1[C@H](O)[C@H](NC)[C@H]2O[C@@]3(O)C(=O)C[C@@H](C)O[C@H]3O[C@@H]2[C@H]1O [Spectinomycin]	< 5%
CC[C@H]1OC(=O)[C@H](C)[C@@H](O[C@H]2C[C@@](C)(OC)[C@@H](O)[C@H](C)O2)[C@H](C)[C@@H](O[C@@H]2O[C@H](C)C[C@H](N(C)C)[C@H]2O)[C@](C)(OC)C[C@@H](C)C(=O)[C@H](C)[C@@H](O)[C@]1(C)O [Clarithromycin]	< 5%
CCC[C@@H]1C[C@@H](C(=O)N[C@@H]([C@H]2O[C@H](SC)[C@H](O)[C@@H](O)[C@H]2O)[C@@H](C)O)N(C)C1 [Lincomycin]	< 5%
NC[C@H](O)c1ccc(O)c(O)c1 [Norepinephrine-(+)-tartrate l (-)]	< 5%
CN(C)CCCN1c2ccccc2Sc2ccc(Cl)cc21 [Chlorpromazine HCl]	< 5%
NCCCC(O)(P(=O)(O)O)P(=O)(O)O [Alendronate]	< 5%
COc1cc2c(cc1OC)-c1c/c(=N\c3c(C)cc(C)cc3C)n(C)c(=O)n1CC2 [Trequinsin HCl]	< 5%
COc1cc2nc(N3CCN(C(=O)C4COc5ccccc5O4)CC3)nc(N)c2cc1OC (stereo not shown) [Doxazosin mesylate]	< 5%

Compound	inhibition at 50 µM
CS(=O)(=O)c1ccc([C@H](O)[C@@H](COC(=O)CN)NC(=O)C(Cl)Cl)cc1 [Thiamphenicol glycinate]	< 5%
CN1[C@@H]2C[C@@H](OC(=O)[C@H](CO)c3ccccc3)C[C@H]1[C@@H]1O[C@@H]12 [Scopolamine HBr]	< 5%
CN(CCOc1ccc(CC2SC(=O)NC2=O)cc1)c1ccccn1 (stereo not shown) [Rosiglitazone maleate]	< 5%
CCCCn1c(=O)c2c(ncn2CC(C)=O)n(CCCC)c1=O [Denbufylline]	< 5%
CN1CCCCC1CCN1c2ccccc2Sc2ccc([S+](C)[O-])cc21 (stereo not shown) [Mesoridazine besylate]	16.5%
CNCCC(Oc1ccccc1OC)c1ccccc1 (stereo not shown) [Nisoxetine HCl]	< 5%
CCCCc1nc(Cl)c(CO)n1Cc1ccc(-c2ccccc2-c2nnn[nH]2)cc1 [Losartan potassium]	< 5%
O=c1[nH]c2ccccc2n1CCCN1CCC(n2c(=O)[nH]c3cc(Cl)ccc32)CC1 [Domperidone]	< 5%
C=C[C@H]1CN2CC[C@H]1C[C@H]2[C@H](O)c1ccnc2ccc(OC)cc12 [Quinine]	16.9%
CC(=O)Oc1ccccc1C(=O)O [Acetylsalicylic acid]	< 5%
c1ccc2c(c1)OCC(C1=NCCN1)O2 (stereo not shown) [Idazoxan]	< 5%
C#C[C@]1(O)CC[C@H]2[C@@H]3CCC4=Cc5oncc5C[C@]4(C)[C@H]3CC[C@@]21C [Danazol]	< 5%
C[C@H]1[C@H](C)CC[C@]2(C(=O)O)CC[C@]3(C)C(=CC[C@@H]4[C@@]5(C)C[C@@H](O)[C@H](O)[C@@](C)(CO)[C@@H]5CC[C@]43C)[C@H]12 [Asiatic acid]	< 5%
CN1CCc2cccc3c2[C@H]1Cc1ccc(O)c(O)c1-3 [Apomorphine r (-)]	< 5%
C[C@]12Cc3c[nH]nc3C[C@@H]1CC[C@@H]1[C@@H]2CC[C@@]2(C)[C@H]1CC[C@]2(C)O [Stanozolol]	< 5%
O=C1CC[C@@]2(O)[C@H]3Cc4ccc(O)c5c4[C@@]2(CCN3CC2CC2)[C@H]1O5 [Naltrexone HCl]	< 5%
N[C@@H](Cc1ccc(N(CCCl)CCCl)cc1)C(=O)O [Melphalan]	< 5%
CC(=O)O[C@]1(C(C)=O)CC[C@H]2[C@@H]3C[C@H](C)C4=CC(=O)CC[C@]4(C)[C@H]3CC[C@@]21C [Medroxyprogesterone 17-acetate]	< 5%
Clc1ccc2c(c1)C(N1CCNCC1)=Nc1ccccc1O2 [Amoxapine]	16.8%
COc1ccc2c(c1)[C@]13CCCC[C@@H]1[C@H](C2)N(C)CC3 [Dextromethorphan HBr]	41.3%
COc1ccc(C(CN(C)C)C2(O)CCCCC2)cc1 (stereo not shown) [Venlafaxine HCl]	< 5%
C[C@@](Cc1ccc(O)c(O)c1)(NN)C(=O)O [Carbidopa]	< 5%
